Test results: PubChem BioAssay AID1745844 (Carcinogenic Potency Database (CPDB), 2022)
Values joined by “and” are separate entries in the source; they are usually repeats but may differ in a detail not shown here. Equal values may be shown once. Active and inactive are the calls of the source. How the calls were made is not given here.

Test system: rodent lifetime carcinogenesis bioassay, tumor incidence TD50
Assay: carcinogenic potency in animals, long-term in vivo studies, CPDB compilation (AID 1745844)

O=C1CN(N=Cc2ccc([N+](=O)[O-])o2)C(=O)N1
2330 mg/kg/day: TD50 (mouse, strain B6C3F1, females, in feed, site: liver, lesion: hepatocellular adenoma + hepatocellular carcinoma + neoplastic nodule, dosed 103 weeks, study length 105 weeks)
64.2 mg/kg/day: TD50 (rat, strain Sprague-Dawley, females, in feed, site: any site (literature study), lesion: several types, types named in the paper, dosed 104 weeks, study length 104 weeks)
866 mg/kg/day: TD50 (mouse, strain B6C3F1, females, in feed, site: ovary, lesion: granulosa-cell tumor, benign + granulosa-cell tumor, malignant + mixed tumor, benign + tubular adenoma, dosed 103 weeks, study length 105 weeks)
332 mg/kg/day: TD50 (rat, strain Fischer 344, males, in feed, site: liver, lesion: hepatocellular adenoma + hepatocellular carcinoma + neoplastic nodule, dosed 103 weeks, study length 105 weeks)
303 mg/kg/day: TD50 (rat, strain Fischer 344, males, in feed, site: subcutaneous tissue, lesion: fibroma, dosed 103 weeks, study length 105 weeks)
54.3 mg/kg/day: TD50 (rat, strain Sprague-Dawley, females, in feed, site: mammary gland, lesion: fibroadenoma, dosed 104 weeks, study length 104 weeks)
inactive: TD50 (mouse, strain B6C3F1, females, in feed, site: cervix uteri, lesion: leiomyosarcoma, dosed 64 weeks, study length 64 weeks) 4000 mg/kg/day | TD50 (mouse, strain B6C3F1, females, in feed, site: ovary, lesion: granulosa-cell tumor, dosed 64 weeks, study length 64 weeks) 4020 mg/kg/day | carcinogen call (mouse, strain B6C3F1, males, in feed, site: any site (literature study), lesion: several types, types named in the paper, dosed 103 weeks, study length 105 weeks) negative | carcinogen call (mouse, strain BDF1, females, in feed, site: any site (literature study), lesion: several types, types named in the paper, dosed 104 weeks, study length 104 weeks) negative | carcinogen call (mouse, strain BDF1, females, in feed, site: liver, lesion: hemangioma, dosed 104 weeks, study length 104 weeks) negative | carcinogen call (mouse, strain BDF1, females, in feed, site: lung, lesion: adenocarcinoma, dosed 104 weeks, study length 104 weeks) negative | carcinogen call (mouse, strain BDF1, males, in feed, site: any site (literature study), lesion: several types, types named in the paper, dosed 104 weeks, study length 104 weeks) negative | carcinogen call (mouse, strain BDF1, males, in feed, site: liver, lesion: adenoma, dosed 104 weeks, study length 104 weeks) negative | carcinogen call (mouse, strain BDF1, males, in feed, site: liver, lesion: hemangioma, dosed 104 weeks, study length 104 weeks) negative | TD50 (mouse, strain BDF1, males, in feed, site: lung, lesion: adenoma, dosed 104 weeks, study length 104 weeks) 53900 mg/kg/day | TD50 (mouse, strain Charles River CD1, females, in feed, site: liver, lesion: hemangioma, dosed 93 weeks, study length 100 weeks) 4460 mg/kg/day | carcinogen call (mouse, strain Charles River CD1, females, in feed, site: liver, lesion: hemangiosarcoma, dosed 93 weeks, study length 100 weeks) negative | carcinogen call (mouse, strain Charles River CD1, females, in feed, site: liver, lesion: hepatocellular adenoma, dosed 93 weeks, study length 100 weeks) negative | carcinogen call (mouse, strain Charles River CD1, females, in feed, site: lung, lesion: alveolar-cell adenoma, dosed 93 weeks, study length 100 weeks) negative | carcinogen call (mouse, strain Charles River CD1, females, in feed, site: lung, lesion: alveolar-cell carcinoma, dosed 93 weeks, study length 100 weeks) negative | TD50 (mouse, strain Charles River CD1, males, in feed, site: all sites, lesion: myeloid leukemia, dosed 93 weeks, study length 100 weeks) 588 mg/kg/day | carcinogen call (mouse, strain Charles River CD1, males, in feed, site: liver, lesion: hemangiosarcoma, dosed 93 weeks, study length 100 weeks) negative | TD50 (mouse, strain Charles River CD1, males, in feed, site: liver, lesion: hepatocellular adenoma, dosed 93 weeks, study length 100 weeks) 1200 mg/kg/day | carcinogen call (mouse, strain Charles River CD1, males, in feed, site: liver, lesion: hepatocellular carcinoma, dosed 93 weeks, study length 100 weeks) negative | TD50 (mouse, strain Charles River CD1, males, in feed, site: lung, lesion: alveolar-cell adenoma, dosed 93 weeks, study length 100 weeks) 833 mg/kg/day | TD50 (mouse, strain Charles River CD1, males, in feed, site: lung, lesion: alveolar-cell carcinoma, dosed 93 weeks, study length 100 weeks) 17000 mg/kg/day | carcinogen call (rat, strain Charles River CD (Sprague-Dawley), females, in feed, site: any site (literature study), lesion: malignant tumor, dosed 104 weeks, study length 104 weeks) negative | carcinogen call (rat, strain Charles River CD (Sprague-Dawley), females, in feed, site: any site (literature study), lesion: one or several types, types not named, dosed 104 weeks, study length 104 weeks) negative | carcinogen call (rat, strain Charles River CD (Sprague-Dawley), females, in feed, site: mammary gland, lesion: several types, types named in the paper, dosed 104 weeks, study length 104 weeks) negative | TD50 (rat, strain Charles River CD (Sprague-Dawley), males, in feed, site: any site (literature study), lesion: malignant tumor, dosed 104 weeks, study length 104 weeks) 1200 mg/kg/day | carcinogen call (rat, strain Charles River CD (Sprague-Dawley), males, in feed, site: any site (literature study), lesion: one or several types, types not named, dosed 104 weeks, study length 104 weeks) negative | TD50 (rat, strain Charles River CD (Sprague-Dawley), males, in feed, site: mammary gland, lesion: fibroadenoma, dosed 104 weeks, study length 104 weeks) 878 mg/kg/day | TD50 (rat, strain Fischer 344, females, in feed, site: clitoral gland, lesion: adenoma, dosed 103 weeks, study length 105 weeks) 93.7 mg/kg/day | carcinogen call (rat, strain Fischer 344, males, in feed, site: urinary bladder, lesion: one or several types, types not named, dosed 104 weeks, study length 104 weeks) negative | TD50 (rat, strain Holtzman albino (Sprague-Dawley derived), females, in feed, site: mammary gland, lesion: fibroadenoma, dosed 36 weeks, study length 54 weeks) 120 mg/kg/day | TD50 (rat, strain Holtzman albino (Sprague-Dawley derived), females, in feed, site: mammary tissue, wider than the gland, lesion: one or several types, types not named, dosed 44 weeks, study length 60 weeks) 214 mg/kg/day | TD50 (rat, strain Sprague-Dawley, females, in feed, site: any site (literature study), lesion: several types, types named in the paper, dosed 75 weeks, study length 80 weeks) 185 mg/kg/day
active: TD50 (mouse, strain B6C3F1, females, in feed, site: ovary, lesion: granulosa-cell tumor, benign + granulosa-cell tumor, malignant, dosed 103 weeks, study length 105 weeks) 2560 mg/kg/day | TD50 (mouse, strain B6C3F1, females, in feed, site: ovary, lesion: granulosa-cell tumor, benign, dosed 103 weeks, study length 105 weeks) 8470 mg/kg/day | TD50 (mouse, strain B6C3F1, females, in feed, site: ovary, lesion: mixed tumor, benign + tubular adenoma, dosed 103 weeks, study length 105 weeks) 1400 mg/kg/day | TD50 (mouse, strain B6C3F1, females, in feed, site: ovary, lesion: mixed tumor, benign, dosed 103 weeks, study length 105 weeks) 3380 mg/kg/day | TD50 (mouse, strain B6C3F1, females, in feed, site: ovary, lesion: tubular adenoma, dosed 103 weeks, study length 105 weeks) 2530 mg/kg/day | TD50 (rat, strain Fischer 344, males, in feed, site: kidney, lesion: tubule adenoma + tubule carcinoma, dosed 103 weeks, study length 105 weeks) 163 mg/kg/day and 698 mg/kg/day

O=S1(=O)CCCO1
active: TD50 (rat, strain Charles River CD (Sprague-Dawley), females, by gavage, site: all sites, lesion: granulocytic leukemia, dosed 46 weeks, study length 60 weeks) 18.6 mg/kg/day | TD50 (rat, strain Charles River CD (Sprague-Dawley), females, by gavage, site: cerebellum, lesion: malignant glioma, dosed 46 weeks, study length 60 weeks) 7.2 mg/kg/day | TD50 (rat, strain Charles River CD (Sprague-Dawley), females, by gavage, site: cerebrum, lesion: malignant glioma, dosed 46 weeks, study length 60 weeks) 4.06 mg/kg/day | TD50 (rat, strain Charles River CD (Sprague-Dawley), females, by gavage, site: mammary gland, lesion: adenocarcinoma, dosed 46 weeks, study length 60 weeks) 4.13 mg/kg/day | TD50 (rat, strain Charles River CD (Sprague-Dawley), females, by gavage, site: small intestine, lesion: adenocarcinoma, dosed 46 weeks, study length 60 weeks) 31.7 mg/kg/day | TD50 (rat, strain Charles River CD (Sprague-Dawley), males, by gavage, site: all sites, lesion: granulocytic leukemia, dosed 46 weeks, study length 60 weeks) 23.5 mg/kg/day | TD50 (rat, strain Charles River CD (Sprague-Dawley), males, by gavage, site: cerebellum, lesion: malignant glioma, dosed 46 weeks, study length 60 weeks) 4.75 mg/kg/day | TD50 (rat, strain Charles River CD (Sprague-Dawley), males, by gavage, site: cerebrum, lesion: malignant glioma, dosed 46 weeks, study length 60 weeks) 3.64 mg/kg/day | TD50 (rat, strain Charles River CD (Sprague-Dawley), males, by gavage, site: small intestine, lesion: adenocarcinoma, dosed 46 weeks, study length 60 weeks) 15.4 mg/kg/day
